These are literature values, as cited in PMC5459304 (International journal of toxicology, 2017).

The data set has as its system patients.

Take `CC1(C)C(/C=C/C=C/C=C/C=C2\N(CCCCS(=O)(=O)O)c3ccc4ccccc4c3C2(C)C)=[N+](CCCCS(=O)(=O)[O-])c2ccc3ccccc3c21` [ICG, indocyanine green]: the severe reaction rate (1 severe reaction among 1226 patients) is on record as 0.05%. For the same molecule, the number of reactions (1226 patients) is on record as 7 reactions out of 1923 ICG angiograms. For the same molecule, the adverse reaction rate (1923 ICG angiograms in 1226 patients) is 0.3%. The “number of severe reactions” value (ICG angiograms from Japanese ophthalmologists) is listed as 2 severe reactions among 2820 patients.
